# Tests used:
# CYP1A2 = target: T1, CYP1A2 (Homo sapiens, UniProt P05177); experiment: Cytochrome P450 inhibition CYP1A2; assay type: in vitro ADME; conditions: human liver microsomes
# T1 construct: from tissue; host or cells: human liver microsomes
# T1 sequence (P05177 1-516): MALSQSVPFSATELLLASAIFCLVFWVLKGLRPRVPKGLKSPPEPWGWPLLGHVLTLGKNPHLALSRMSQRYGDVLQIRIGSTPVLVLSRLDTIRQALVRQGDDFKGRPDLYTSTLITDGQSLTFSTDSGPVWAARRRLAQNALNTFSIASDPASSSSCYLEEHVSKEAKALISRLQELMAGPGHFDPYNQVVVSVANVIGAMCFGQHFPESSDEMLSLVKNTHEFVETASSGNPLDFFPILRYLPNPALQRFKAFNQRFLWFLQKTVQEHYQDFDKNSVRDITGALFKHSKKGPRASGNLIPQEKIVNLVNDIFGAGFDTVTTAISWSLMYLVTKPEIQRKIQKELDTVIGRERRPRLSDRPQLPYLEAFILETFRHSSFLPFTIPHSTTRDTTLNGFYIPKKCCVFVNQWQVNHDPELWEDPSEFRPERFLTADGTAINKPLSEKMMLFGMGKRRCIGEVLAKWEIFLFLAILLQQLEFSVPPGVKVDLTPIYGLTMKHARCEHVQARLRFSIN
# Experimental: (§1) Test compound (0.1, 0.25, 1, 2.5, 10, 25 μM in DMSO; final DMSO concentration 0.3%) was incubated with human liver microsomes (0.25 mg/mL) and NADPH (1 mM) in the presence of a cytochrome P450 isoform-specific probe substrate. The metabolites were monitored by LC-MS/MS and a decrease in the formation of the metabolite compared to the vehicle control used to calculate an IC50 value (test compound concentration which produces 50% inhibition). A cytochrome P450 isoform-specific selective inhibitor was screened alongside the test compounds as a positive control.
# CYP2B6 = target: T2, CYP2B6 (Homo sapiens, UniProt P20813); experiment: Cytochrome P450 inhibition CYP2B6; assay type: in vitro ADME; conditions: human liver microsomes
# T2 construct: from tissue; host or cells: human liver microsomes
# T2 sequence (P20813 1-491): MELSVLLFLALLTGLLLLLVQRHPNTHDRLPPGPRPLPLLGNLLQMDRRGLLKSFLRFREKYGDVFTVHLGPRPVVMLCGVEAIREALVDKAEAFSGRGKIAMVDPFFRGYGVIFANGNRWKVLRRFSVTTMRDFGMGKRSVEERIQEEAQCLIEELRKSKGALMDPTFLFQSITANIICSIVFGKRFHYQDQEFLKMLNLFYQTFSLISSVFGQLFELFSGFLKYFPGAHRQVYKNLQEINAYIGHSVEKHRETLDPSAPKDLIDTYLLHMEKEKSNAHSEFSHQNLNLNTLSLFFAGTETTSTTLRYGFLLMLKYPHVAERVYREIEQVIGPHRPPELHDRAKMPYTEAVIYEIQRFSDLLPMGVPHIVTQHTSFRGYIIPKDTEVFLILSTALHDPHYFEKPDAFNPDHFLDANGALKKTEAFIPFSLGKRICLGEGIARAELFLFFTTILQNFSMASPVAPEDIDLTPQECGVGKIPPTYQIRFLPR
# Experimental: as §1
# CYP2C8 = target: T3, CYP2C8 (Homo sapiens, UniProt P10632); experiment: Cytochrome P450 inhibition CYP2C8; assay type: in vitro ADME; conditions: human liver microsomes
# T3 construct: from tissue; host or cells: human liver microsomes
# T3 sequence (P10632 1-490): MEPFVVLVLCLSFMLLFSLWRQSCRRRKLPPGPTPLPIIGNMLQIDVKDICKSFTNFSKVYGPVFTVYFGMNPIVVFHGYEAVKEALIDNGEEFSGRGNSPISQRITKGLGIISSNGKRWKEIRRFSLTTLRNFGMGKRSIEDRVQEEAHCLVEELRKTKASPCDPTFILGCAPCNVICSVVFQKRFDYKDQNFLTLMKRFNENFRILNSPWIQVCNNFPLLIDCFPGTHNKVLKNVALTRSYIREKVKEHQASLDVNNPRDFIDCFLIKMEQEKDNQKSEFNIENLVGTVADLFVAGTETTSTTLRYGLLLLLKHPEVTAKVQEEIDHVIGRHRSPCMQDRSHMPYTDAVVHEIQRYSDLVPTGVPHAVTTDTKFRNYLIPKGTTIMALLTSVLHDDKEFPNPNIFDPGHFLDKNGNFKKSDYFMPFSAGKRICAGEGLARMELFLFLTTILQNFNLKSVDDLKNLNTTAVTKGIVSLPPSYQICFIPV
# Experimental: as §1
# CYP2C19 = target: T4, CYP2C19 (Homo sapiens, UniProt P33261); experiment: Cytochrome P450 inhibition CYP2C19; assay type: in vitro ADME; conditions: human liver microsomes
# T4 construct: from tissue; host or cells: human liver microsomes
# Experimental: as §1
# CYP2D6 = target: T5, CYP2D6 (Homo sapiens, UniProt P10635); experiment: Cytochrome P450 inhibition CYP2D6; assay type: in vitro ADME; conditions: human liver microsomes
# T5 construct: from tissue; host or cells: human liver microsomes
# Experimental: as §1
# [1] = In vivo pharmacokinetics in the dog; set-up: species or system Beagle dogs; conditions: Beagle, plasma, 3 mg/kg PO
# Experimental: The pharmacokinetics of compounds of the invention were studied in vivo in the dog at doses of 3 mg/kg (PO).
# Beagle dogs (n=3) were treated with experimental compounds via oral administration (3 mg/kg). Oral administration was performed by gavage at a dose of 3 mg/kg at a concentration of 0.6 mg/mL in […], 30% PEG 400 & 65% (2-hydroxypropyl)-β-cyclodextrin solution (20% w/v aq.). Serial blood samples were collected at 0.08, 0.25, 0.5, 1, 2, 4, 6, 8, 12 and 24 hours post dosing of compound. […] Serial plasma samples were taken at the defined time points and stored immediately at −80° C.
# Following protein precipitation with acetonitrile, samples were analysed with tandem. liquid chromatography/mass spectrometry using electrospray ionisation. A full matrix curve with internal standards was employed and PK parameters were calculated.
# T4 sequence (P33261 whole entry): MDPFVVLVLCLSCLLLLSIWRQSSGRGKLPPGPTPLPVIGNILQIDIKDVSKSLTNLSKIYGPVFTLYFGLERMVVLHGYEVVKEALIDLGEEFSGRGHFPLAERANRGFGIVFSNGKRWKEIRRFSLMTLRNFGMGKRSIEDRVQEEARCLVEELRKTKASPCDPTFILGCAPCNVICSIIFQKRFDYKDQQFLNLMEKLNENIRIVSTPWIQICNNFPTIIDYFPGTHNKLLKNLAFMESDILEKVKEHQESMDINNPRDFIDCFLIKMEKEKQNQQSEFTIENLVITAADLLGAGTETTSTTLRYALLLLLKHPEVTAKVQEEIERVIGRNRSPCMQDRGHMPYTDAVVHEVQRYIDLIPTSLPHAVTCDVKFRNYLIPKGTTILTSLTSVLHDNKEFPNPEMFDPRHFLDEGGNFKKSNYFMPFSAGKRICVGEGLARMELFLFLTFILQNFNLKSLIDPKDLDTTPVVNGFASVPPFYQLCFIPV
# T5 sequence (P10635 whole entry): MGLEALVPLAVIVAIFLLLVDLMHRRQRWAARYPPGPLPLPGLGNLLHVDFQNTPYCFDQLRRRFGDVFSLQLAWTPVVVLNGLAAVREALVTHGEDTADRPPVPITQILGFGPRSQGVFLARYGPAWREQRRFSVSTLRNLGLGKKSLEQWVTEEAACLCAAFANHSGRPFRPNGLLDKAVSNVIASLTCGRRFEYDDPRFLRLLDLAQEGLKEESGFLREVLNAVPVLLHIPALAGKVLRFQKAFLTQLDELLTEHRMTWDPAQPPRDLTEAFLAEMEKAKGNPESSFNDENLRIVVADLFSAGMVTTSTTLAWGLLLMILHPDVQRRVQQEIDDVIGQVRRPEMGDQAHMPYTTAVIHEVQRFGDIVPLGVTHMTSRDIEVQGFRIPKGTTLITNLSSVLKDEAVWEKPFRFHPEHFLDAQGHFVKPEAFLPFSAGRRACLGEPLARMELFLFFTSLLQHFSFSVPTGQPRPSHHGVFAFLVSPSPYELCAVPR
structure (smiles),measurement,setting,value
"CS(=O)(=O)N1CCC(n2c(CN3C(=O)C4(CC4)c4ccc(F)cc43)nc3cc(Cl)ccc32)CC1 [Compound 33, 1′-{[5-Chloro-1-(1-methanesulfonylpiperidin-4-yl)-1H-1,3-benzodiazol-2-yl]methyl}-6′-fluoro-1′,2′-dihydrospiro[cyclopropane-1,3′-indole]-2′-one]",IC50,CYP1A2,> 25 µM
same,IC50,CYP2B6,> 25 µM
same,IC50,CYP2C8,> 25 µM
same,IC50,CYP2C19,> 25 µM
same,IC50,CYP2D6,> 25 µM
same,AUC,[1],3870 ng·h/mL
same,AUC(0-inf),[1],4280 ng·h/mL
same,AUC(0-t),[1],3870 ng·h/mL
same,Cmax,[1],535 ng/mL
same,Tmax,[1],0.67 h
same,half-life,[1],7.24 h

# — patent publication US11078189B2, “Pharmaceutical compounds” (REVIRAL LIMITED, priority 2017, dated 2021)
